Data set [1] is described as follows: Molar absorptivities at 280 nm and 493 nm. In kind it is physicochemical. As for the experimental part: UV-vis absorption profiles were obtained for compound 7-functionalized antibodies, unfunctionalized antibodies, and free compound 7. FIG. 47 provides the results of these analyses. Molar absorptivities (8) were determined for the anti-BCMA antibody at 280 nm (primarily corresponding tyrosine and tryptophan absorbances from the anti-BCMA antibody) and at 493 nm for maleimide fluorescein and 5 (6)-carboxy fluorescein (primarily corresponding to the HOMO to LUMO transition within the fluorescein x-system), and are summarized in Table 18. As the unfunctionalized antibody minimally absorbed around 493 nm, absorbance in this region is quantitative for fluorescein concentration.

The test system of data set [2] is engineered cytokine receptor switches (fluorescein-binding receptor domains, IL-7 receptor-a intracellular signaling domains). Nature of the data set: T-cell activation, transduction, expansion and differentiation; memory phenotype quantification. In kind it is cell-based. The note with it: after 5 days in multi-well plates; non-fluorescein contacted cells about 30%. An excerpt:
This example covers activation, differentiation, and expansion of immune cells with engineered cytokine receptor switches. The engineered cytokine receptor switches included fluorescein-binding receptor domains and IL-7 receptor-a intracellular signaling domains. The cells were activated with CD3 and CD28 antibody-coated beads, followed by small molecule activators for the engineered cytokine switches to promote differentiation to memory phenotypes. The proportion of stem-cell memory, central memory, and effector memory cells were measured following differentiation.
Activation, transfection, expansion, and differentiation were performed according to the timeline in FIG. 28A. The cells were maintained in media with 20 units/ml IL2 throughout the incubation. The cells were first contacted with CD3/CD28 activating beads at a ratio of 1:1 (cells to beads). Following three days of activation and expansion, the cells were transfected with a gamma retroviral vector encoding the engineered cytokine receptor switch with fluorescein binding affinity and mCherry for fluorescence detection. The cells were then transferred to a multi-well plate. […]
Following 5 total days of incubation in the multi-well plates, the cells were analyzed for (1) stem-cell memory, (2) central memory, (3) effector memory, and (4) terminally differentiated effector memory re-expressing CD45RA phenotype. […]

Each structure is given as a SMILES string.

In turn, `O=C1OC2(c3ccc(O)cc3Oc3cc(O)ccc32)c2ccc(N3C(=O)C=CC3=O)cc21` [Fluorescein-Maleimide] showed a ε280 nm in data set [1] (molar absorptivity at 280 nm) of 7968 M⁻¹ cm⁻¹. The ε493nm in data set [1] (molar absorptivity at 493 nm) was 43908 M⁻¹ cm⁻¹.
`O=C1OC2(c3ccc(O)cc3Oc3cc(O)ccc32)c2ccccc21` [fluorescein]: the “proportion of central memory cells” value in data set [2] is reported as “about 50%”.
